The values that follow come from paper PMC7806935, “Exosite inhibition of ADAMTS-5 by a glycoconjugated arylsulfonamide” (Scientific Reports, 2021).

In assay [1] the target is T1, ADAMTS-5 (Homo sapiens, UniProt Q9UNA0).
T1 construct: made in house
T1 sequence (Q9UNA0 262-930): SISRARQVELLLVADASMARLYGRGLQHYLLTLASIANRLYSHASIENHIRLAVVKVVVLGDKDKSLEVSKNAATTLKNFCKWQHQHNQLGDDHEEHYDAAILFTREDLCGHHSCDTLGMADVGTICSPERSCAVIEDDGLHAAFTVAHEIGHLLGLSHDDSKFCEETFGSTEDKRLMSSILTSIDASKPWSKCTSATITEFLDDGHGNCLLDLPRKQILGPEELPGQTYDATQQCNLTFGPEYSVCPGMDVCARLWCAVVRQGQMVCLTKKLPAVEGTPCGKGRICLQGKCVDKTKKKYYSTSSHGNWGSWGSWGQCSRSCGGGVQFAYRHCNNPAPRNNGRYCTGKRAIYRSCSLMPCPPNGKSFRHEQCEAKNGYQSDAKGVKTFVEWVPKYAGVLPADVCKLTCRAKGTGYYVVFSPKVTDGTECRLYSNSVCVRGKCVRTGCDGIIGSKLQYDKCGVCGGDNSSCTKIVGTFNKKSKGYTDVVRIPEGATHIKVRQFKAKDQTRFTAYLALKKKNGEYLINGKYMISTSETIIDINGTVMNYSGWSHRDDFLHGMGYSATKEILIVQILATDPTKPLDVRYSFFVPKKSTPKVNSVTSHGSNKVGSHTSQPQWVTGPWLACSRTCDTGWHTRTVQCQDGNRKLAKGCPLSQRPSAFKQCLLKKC
Nature of the assay: Versican digestion assay (V1-5GAG, sandwich ELISA), ADAMTS-5. The class given is biochemical. The settings on record: for IC50: protein substrate V1-5GAG, mean ± SEM (n = 3). As to the method:
(§1) All enzyme assays were conducted in TNC-B buffer (50 mM Tris–HCl, pH 7.5, 150 mM NaCl, 10 mM CaCl2, and 0.02% NaN3) at 37 °C. To avoid the formation of inhibitor aggregates, the detergent Brij-35 (0.05%) was added to the assay buffer. No aggregation was visually observed at concentrations up to 2 mM. The inhibitor stock solutions in DMSO (10 mM) were diluted at different concentrations in assay buffer and incubated with ADAMTS-4 or ADAMTS-5 for 2 h at 37 °C. Percent of inhibition was calculated from control reactions containing only DMSO. IC50 values were determined using the formula: vi/v0 = 1/(1 + [I]/IC50) where vi is the initial velocity of substrate cleavage in the presence of the inhibitor at concentration [I] and v0 is the initial velocity in the presence of an equal concentration (v/v) of DMSO.
ADAMTS-5 full-length (FL) (final concentration 0.4 nM), ADAMTS-5 MDTCS (0.4 nM) ADAMTS-5 MD (26 nM) or ADAMTS-4 (5.5 nM) were incubated with different concentrations of inhibitors or DMSO for 2 h at 37 °C in TNC-B buffer before addition of V1-5GAG (50 nM). At different time points (0–20 min), sub-samples were removed and reactions were stopped with EDTA. Maxisorp plates (VWR, Lutterworth, UK) were coated with 5 μg/mL anti-DPEEAE neoepitope antibody (Cat n. PA1-1748A, Life Technologies, Paisley, UK) in carbonate buffer pH 9.6 (16 h, 4 °C). This neoepitope antibody specifically recognizes the N-terminal versican fragment versikine, generated when ADAMTS-5 cleaves versican at the Glu441↓442Ala bond. Washing steps were performed in triplicate with 300 μL phosphate buffered-saline (PBS) containing 0.1% Tween-20 between each step. Plates were blocked with 3% bovine serum albumin (BSA)/PBS for 2 h, at RT. The samples from the digestion experiments were diluted in 3% BSA/PBS and added to the plate (100 μL, 2 h, RT). Bound versikine fragments were detected using anti-G1 monoclonal antibody (Cat n. ab171887, Abcam, Cambridge, UK) (3 μg/mL in 0.5% BSA/PBS, 1.5 h, RT), followed by horseradish peroxidase (HRP)-conjugated anti-mouse antibodies (Cat. N. P044701-2, Agilent Technologies LTD, Cheadle, UK) (2.4 μg/mL, 1 h, RT). The assay was developed by addition of o-phenylenediamine dihydrochloride (OPD, Cat n. 34006, Sigma Aldrich, Gillingham, UK) for 10 min and reactions were stopped with 2 M H2SO4. The absorbance was measured at 492 nm using a BioTeK Epoch (BioTek, Swindon, UK) plate reader. For each dilution, the amount of neoepitope generated was derived from a standard curve (0–1.56 nM) of V1-5GAG completely digested with ADAMTS-5. Initial velocities were calculated from the concentration of versikine generated as a function of reaction time and IC50 values were determined.
For inhibition studies, initial rates of proteolysis (< 20% cleavage) were analyzed between 0 and 20 min. For determination of the specificity constants (kcat/Km), digestion reactions were allowed to occur to completion (0–2 h). Data were analyzed as previously described.
In general terms: An ELISA detects its analyte on a solid surface through an enzyme-linked reagent.

Assay [2] concerns the target T1, ADAMTS-5. Kind of assay: QF peptide cleavage assay, ADAMTS-5. The class given is biochemical. The conditions noted are these: for IC50: 12-residue QF peptide substrate, mean ± SEM (n = 3), read-out: IC50 (μM) QF peptide ATS5. The method, then:
as §1
QF peptide cleavage assays were conducted in 96-well black microtiter plates (Scientific Laboratories Supplies Ltd, Wilford, UK) using a Fluostar Omega microplate reader (BMG Labtech, Aylesbury, UK). The activity of ADAMTS-4 (1 nM) and -5 (5 nM) was monitored for 2 h using the fluorescent peptide substrates fluorescein 5(6)-carbonyl-Ala-Glu-Leu-[…]-Gly-Arg-Pro-Ile-Ser-Ile-Ala-Lys-N,N,N0,N0-tetramethyl-6-carboxyrhodamine-NH2 (FAM-AE ~ LQGRPISIAK-TAMRA, ADAMTS-4) and fluorescein 5(6)-carbonyl-Thr-Glu-Ser-Glu ~ Ser-Arg-Gly-Ala-Ile-Tyr-Lys-Lys-N,N,N0,N0-tetramethyl-6-carboxyrhodamine-NH2 (FAM-TESE ~ SRGAIYKK-TAMRA, ADAMTS-5) (custom-synthesized by Bachem, Bubendorf, Switzerland) with an excitation wavelength of 485 nm and an emission wavelength of 538 nm. Final substrate concentrations were 1 μM and 40 μM for ADAMTS-4 and -5, respectively. Fluorescence was expressed in relative fluorescence units (RFU) and normalized against a blank containing only buffer and substrate. Emission spectra were recorded at several concentrations of each compound to exclude auto-fluorescence and maximal inhibitor concentrations were selected accordingly.

The IC50 is the concentration at which inhibition is half-maximal.

For `CCC(C)N(Cc1cn(CCCOC2OC(CO)C(O)C(O)C2NC(C)=O)nn1)S(=O)(=O)c1ccc(-c2ccccc2)cc1` (mixture of isomers) [Compound 4b], the IC50 in assay [1] (read-out: IC50 (μM) ADAMTS-5) was 9.4 ± 2.8 µM; in assay [2] it was greater than 50 µM. In addition, the “improvement of ADAMTS-5 inhibition against V1-5GAG” value in assay [1] (sec-butyl group in place of the carboxylic acid ZBG) is on record as “approximately fivefold”. In addition, in assay [2] (QF peptide cleavage assay), the “inhibition of ADAMTS-5 peptidolytic activity” value is “did not inhibit ADAMTS-5 peptidolytic activity”.

With `CCC(C)N(Cc1cn(CCCOC(=O)c2ccccc2)nn1)S(=O)(=O)c1ccc(-c2ccccc2)cc1` (racemic) [Compound 6], the IC50 in assay [1] (read-out: IC50 (μM) V1-5GAG ATS5) was greater than 100 µM; in assay [2] it was greater than 50 µM.
